Test results published in ChEMBL document CHEMBL4715760, “Balancing potency, metabolic stability and permeability in pyrrolopyrimidine-based EGFR inhibitors” (Eur J Med Chem, 2016).

Key:
[1] = biological target: Dual specificity mitogen-activated protein kinase kinase 1 (Homo sapiens) (UniProt Q02750); assay: Inhibition of recombinant full length human His-tagged MAP2K1 expressed in baculovirus expression system at 500 nM using Ser/Thr 03 as substrate incubated for 1 hr in presence of ATP at its Km concentration by Z'-LYTE assay relative to control
[2] = biological target: Angiopoietin-1 receptor (Homo sapiens) (UniProt Q02763); assay: Inhibition of recombinant human GST-tagged TEK (817 to 1101 residues) expressed in baculovirus expression system at 500 nM using Tyr 05 as substrate incubated for 1 hr in presence of ATP at its Km concentration by Z'-LYTE assay relative to control
[3] = biological target: T1, Testis-specific serine/threonine-protein kinase 2 (Homo sapiens) (UniProt Q96PF2); assay: Inhibition of recombinant full length human His-tagged STK22B expressed in baculovirus expression system at 500 nM using Ser/Thr 04 as substrate incubated for 1 hr in presence of ATP at its Km concentration by Z'-LYTE assay relative to control
T1 sequence (whole entry): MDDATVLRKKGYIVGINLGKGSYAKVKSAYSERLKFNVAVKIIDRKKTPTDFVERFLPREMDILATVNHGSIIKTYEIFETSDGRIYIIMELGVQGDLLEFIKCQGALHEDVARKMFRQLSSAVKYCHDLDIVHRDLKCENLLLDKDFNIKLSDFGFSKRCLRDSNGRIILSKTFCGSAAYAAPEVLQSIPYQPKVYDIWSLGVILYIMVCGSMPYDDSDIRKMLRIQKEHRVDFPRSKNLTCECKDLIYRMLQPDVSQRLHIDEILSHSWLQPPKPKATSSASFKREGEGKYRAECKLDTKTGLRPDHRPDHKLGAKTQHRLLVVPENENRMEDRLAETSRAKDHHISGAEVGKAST

[4] = biological target: T2, Epidermal growth factor receptor (Homo sapiens, UniProt P00533); details: dose 500.0 nM, time 1.0 hrs
[5] = biological target: Tyrosine-protein kinase Lyn (Homo sapiens) (UniProt P07948); assay: Inhibition of recombinant full length human His-tagged LYN-B expressed in baculovirus expression system at 500 nM using Tyr 02 as substrate incubated for 1 hr in presence of ATP at its Km concentration by Z'-LYTE assay relative to contro
[6] = biological target: Serine/threonine-protein kinase PLK1 (Homo sapiens) (UniProt P53350); assay: Inhibition of recombinant full length human His-tagged PLK1 expressed in baculovirus expression system at 500 nM using Ser/Thr 16 as substrate incubated for 1 hr in presence of ATP at its Km concentration by Z'-LYTE assay relative to control
[7] = biological target: Aurora kinase B (Homo sapiens) (UniProt Q96GD4); assay: Inhibition of recombinant full length His-tagged human AURKB expressed in baculovirus expression system at 500 nM using Ser/Thr 01 as substrate incubated for 1 hr in presence of ATP at its Km concentration by Z'-LYTE assay relative to control
Chain of Aurora kinase B (Homo sapiens) (Q96GD4 whole entry): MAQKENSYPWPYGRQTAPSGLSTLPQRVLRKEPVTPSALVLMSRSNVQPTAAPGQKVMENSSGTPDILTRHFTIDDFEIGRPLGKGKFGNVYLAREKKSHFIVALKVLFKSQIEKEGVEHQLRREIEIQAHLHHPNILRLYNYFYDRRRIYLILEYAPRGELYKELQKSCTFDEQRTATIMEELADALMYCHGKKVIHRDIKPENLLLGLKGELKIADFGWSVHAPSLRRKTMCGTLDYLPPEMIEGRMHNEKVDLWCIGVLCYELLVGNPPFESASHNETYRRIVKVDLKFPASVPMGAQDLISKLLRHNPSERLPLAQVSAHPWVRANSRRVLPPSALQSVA

[8] = biological target: Tyrosine-protein kinase Lyn (Homo sapiens) (UniProt P07948); assay: Inhibition of recombinant full length human GST-tagged LYN-A expressed in insect cells at 500 nM using Tyr 02 as substrate incubated for 1 hr in presence of ATP at its Km concentration by Z'-LYTE assay relative to control
[9] = biological target: Receptor tyrosine-protein kinase erbB-4 (Homo sapiens) (UniProt Q15303); assay: Inhibition of recombinant human N-terminal GST-tagged ERBB4 catalytic domain (708 to 993 residues) expressed in baculovirus expression system at 500 nM using Tyr 01 peptide as substrate incubated for 1 hr in presence of ATP at its Km concentration by Z'-LYTE assay relative to control
Chain of Receptor tyrosine-protein kinase erbB-4 (Homo sapiens) (Q15303 whole entry, the tested form may be a part): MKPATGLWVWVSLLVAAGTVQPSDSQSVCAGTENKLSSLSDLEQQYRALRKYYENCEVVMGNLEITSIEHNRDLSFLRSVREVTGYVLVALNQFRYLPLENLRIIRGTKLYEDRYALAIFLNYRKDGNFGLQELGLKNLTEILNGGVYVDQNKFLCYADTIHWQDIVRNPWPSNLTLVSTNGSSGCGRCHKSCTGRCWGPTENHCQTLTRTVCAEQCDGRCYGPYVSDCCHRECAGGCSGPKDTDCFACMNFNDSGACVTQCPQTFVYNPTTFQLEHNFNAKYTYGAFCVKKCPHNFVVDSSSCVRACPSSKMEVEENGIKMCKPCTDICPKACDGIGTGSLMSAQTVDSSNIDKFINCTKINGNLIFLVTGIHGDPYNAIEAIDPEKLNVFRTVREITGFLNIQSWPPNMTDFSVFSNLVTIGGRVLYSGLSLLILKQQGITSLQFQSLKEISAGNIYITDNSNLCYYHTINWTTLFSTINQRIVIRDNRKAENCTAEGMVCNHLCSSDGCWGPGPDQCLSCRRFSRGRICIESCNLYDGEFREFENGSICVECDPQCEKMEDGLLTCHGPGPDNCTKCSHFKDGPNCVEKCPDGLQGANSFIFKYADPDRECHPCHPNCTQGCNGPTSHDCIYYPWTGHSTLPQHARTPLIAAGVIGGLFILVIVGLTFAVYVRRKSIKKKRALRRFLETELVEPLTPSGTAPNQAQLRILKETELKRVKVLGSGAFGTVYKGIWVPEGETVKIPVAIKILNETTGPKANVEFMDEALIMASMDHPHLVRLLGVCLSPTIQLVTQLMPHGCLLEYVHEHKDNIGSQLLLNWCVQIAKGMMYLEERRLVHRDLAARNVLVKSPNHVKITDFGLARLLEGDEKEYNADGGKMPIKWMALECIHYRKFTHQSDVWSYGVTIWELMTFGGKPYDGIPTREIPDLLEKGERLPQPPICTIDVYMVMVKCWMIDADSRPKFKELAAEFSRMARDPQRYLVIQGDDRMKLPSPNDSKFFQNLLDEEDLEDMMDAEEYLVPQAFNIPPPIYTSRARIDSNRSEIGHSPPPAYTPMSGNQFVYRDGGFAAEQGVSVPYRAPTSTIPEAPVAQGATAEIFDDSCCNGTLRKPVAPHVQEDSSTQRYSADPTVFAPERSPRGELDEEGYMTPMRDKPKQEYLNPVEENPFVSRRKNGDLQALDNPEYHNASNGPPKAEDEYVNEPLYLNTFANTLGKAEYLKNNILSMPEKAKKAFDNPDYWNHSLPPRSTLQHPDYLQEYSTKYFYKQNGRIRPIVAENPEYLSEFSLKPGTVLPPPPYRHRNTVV

[10] = biological target: Tyrosine-protein kinase JAK2 (Homo sapiens) (UniProt O60674); assay: Inhibition of human recombinant GST tagged JAK2 catalytic domain expressed in baculovirus expression system at 500 nM using Tyr 06 as substrate incubated for 1 hr in presence of ATP at its Km concentration by Z'-LYTE assay relative to control
Chain of Tyrosine-protein kinase JAK2 (Homo sapiens) (O60674 whole entry, the tested form may be a part): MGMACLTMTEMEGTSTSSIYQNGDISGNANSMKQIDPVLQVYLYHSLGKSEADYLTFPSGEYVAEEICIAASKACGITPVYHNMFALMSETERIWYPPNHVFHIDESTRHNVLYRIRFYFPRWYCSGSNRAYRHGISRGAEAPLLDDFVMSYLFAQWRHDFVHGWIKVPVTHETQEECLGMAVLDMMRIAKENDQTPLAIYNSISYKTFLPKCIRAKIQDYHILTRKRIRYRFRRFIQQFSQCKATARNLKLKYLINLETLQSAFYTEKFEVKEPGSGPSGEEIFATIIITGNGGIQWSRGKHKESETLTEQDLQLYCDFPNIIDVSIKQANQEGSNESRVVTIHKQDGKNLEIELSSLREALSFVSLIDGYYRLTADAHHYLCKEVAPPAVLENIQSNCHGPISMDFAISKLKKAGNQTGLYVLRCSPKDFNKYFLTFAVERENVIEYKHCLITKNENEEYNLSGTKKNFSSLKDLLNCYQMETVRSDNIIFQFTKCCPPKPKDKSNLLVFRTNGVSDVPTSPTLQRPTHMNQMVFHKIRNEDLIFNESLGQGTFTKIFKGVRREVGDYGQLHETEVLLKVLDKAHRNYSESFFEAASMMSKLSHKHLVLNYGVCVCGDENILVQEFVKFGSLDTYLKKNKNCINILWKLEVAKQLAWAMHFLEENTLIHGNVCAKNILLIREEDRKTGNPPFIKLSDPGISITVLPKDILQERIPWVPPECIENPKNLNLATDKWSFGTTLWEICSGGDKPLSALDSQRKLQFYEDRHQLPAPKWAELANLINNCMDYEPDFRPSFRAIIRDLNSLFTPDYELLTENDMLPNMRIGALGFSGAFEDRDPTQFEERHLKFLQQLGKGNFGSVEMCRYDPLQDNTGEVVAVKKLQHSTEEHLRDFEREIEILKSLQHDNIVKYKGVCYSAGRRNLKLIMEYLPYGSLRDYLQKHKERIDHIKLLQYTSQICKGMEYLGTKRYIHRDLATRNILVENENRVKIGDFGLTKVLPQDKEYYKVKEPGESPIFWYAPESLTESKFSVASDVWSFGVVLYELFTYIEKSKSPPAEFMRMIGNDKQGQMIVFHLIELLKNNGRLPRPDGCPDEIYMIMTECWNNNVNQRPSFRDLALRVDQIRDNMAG

BaF3 = assay: Antiproliferative activity against mouse Ba/F3 cells expressing EGFR-L858R mutant assessed as inhibition of cell growth incubated for 48 hrs by XTT assay; assay type: functional, cell-based; details: BaF3, 48 h
[11] = biological target: Tyrosine-protein kinase Fgr (Homo sapiens) (UniProt P09769); assay: Inhibition of recombinant full length human C-terminal His-tagged FGR expressed in baculovirus expression system at 500 nM using Tyr 02 peptide as substrate incubated for 1 hr in presence of ATP at its Km concentration by Z'-LYTE assay relative to control
Chain of Tyrosine-protein kinase Fgr (Homo sapiens) (P09769 2-529 limits assumed): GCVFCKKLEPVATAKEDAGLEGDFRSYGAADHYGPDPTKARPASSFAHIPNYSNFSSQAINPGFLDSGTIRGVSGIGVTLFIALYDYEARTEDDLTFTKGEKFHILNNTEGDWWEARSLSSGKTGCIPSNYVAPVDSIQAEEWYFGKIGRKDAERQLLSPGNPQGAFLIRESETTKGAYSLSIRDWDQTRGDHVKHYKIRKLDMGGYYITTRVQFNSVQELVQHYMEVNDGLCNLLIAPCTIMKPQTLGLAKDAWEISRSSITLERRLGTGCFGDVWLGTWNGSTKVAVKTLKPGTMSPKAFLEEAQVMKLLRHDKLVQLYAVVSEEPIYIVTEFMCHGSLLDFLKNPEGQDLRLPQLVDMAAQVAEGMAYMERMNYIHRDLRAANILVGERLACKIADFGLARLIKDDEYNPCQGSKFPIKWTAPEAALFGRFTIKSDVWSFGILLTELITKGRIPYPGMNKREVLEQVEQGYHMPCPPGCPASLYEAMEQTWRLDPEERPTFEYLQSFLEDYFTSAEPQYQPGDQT

[12] = biological target: Mitogen-activated protein kinase 1 (Homo sapiens) (UniProt P28482); assay: Inhibition of recombinant full length GST-tagged human MAPK1 expressed in Escherichia coli at 500 nM using Ser/Thr 03 as substrate incubated for 1 hr in presence of 100 uM ATP by Z'-LYTE assay relative to control
Chain of Mitogen-activated protein kinase 1 (Homo sapiens) (P28482 whole entry): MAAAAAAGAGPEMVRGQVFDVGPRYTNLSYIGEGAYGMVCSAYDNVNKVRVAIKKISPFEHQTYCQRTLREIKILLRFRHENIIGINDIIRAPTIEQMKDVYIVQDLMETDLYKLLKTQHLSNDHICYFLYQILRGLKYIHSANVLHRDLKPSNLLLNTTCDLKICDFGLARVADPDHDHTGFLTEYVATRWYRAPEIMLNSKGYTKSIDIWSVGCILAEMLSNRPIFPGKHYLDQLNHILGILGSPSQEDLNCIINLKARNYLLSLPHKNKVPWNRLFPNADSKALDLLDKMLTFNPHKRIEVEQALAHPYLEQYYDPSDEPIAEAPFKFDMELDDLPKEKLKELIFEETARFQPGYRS

[13] = biological target: Tyrosine-protein kinase CSK (Homo sapiens) (UniProt P41240); assay: Inhibition of recombinant full length human His-tagged CSK expressed in Escherichia coli expression system at 500 nM using Tyr 02 peptide as substrate incubated for 1 hr in presence of ATP at its Km concentration by Z'-LYTE assay relative to control
[14] = biological target: Protein kinase C alpha type (Homo sapiens) (UniProt P17252); assay: Inhibition of human full length GST-tagged PRKCA expressed in insect cells at 500 nM using Ser/Thr 07 as substrate incubated for 1 hr in presence of ATP at its Km concentration by Z'-LYTE assay relative to control
[15] = biological target: Tyrosine-protein kinase Fyn (Homo sapiens) (UniProt P06241); assay: Inhibition of recombinant human C-terminal His-tagged full length FYN expressed in baculovirus expression system at 500 nM using Tyr 02 peptide as substrate incubated for 1 hr in presence of ATP at its Km concentration by Z'-LYTE assay relative to control
Chain of Tyrosine-protein kinase Fyn (Homo sapiens) (P06241 2-537 limits assumed): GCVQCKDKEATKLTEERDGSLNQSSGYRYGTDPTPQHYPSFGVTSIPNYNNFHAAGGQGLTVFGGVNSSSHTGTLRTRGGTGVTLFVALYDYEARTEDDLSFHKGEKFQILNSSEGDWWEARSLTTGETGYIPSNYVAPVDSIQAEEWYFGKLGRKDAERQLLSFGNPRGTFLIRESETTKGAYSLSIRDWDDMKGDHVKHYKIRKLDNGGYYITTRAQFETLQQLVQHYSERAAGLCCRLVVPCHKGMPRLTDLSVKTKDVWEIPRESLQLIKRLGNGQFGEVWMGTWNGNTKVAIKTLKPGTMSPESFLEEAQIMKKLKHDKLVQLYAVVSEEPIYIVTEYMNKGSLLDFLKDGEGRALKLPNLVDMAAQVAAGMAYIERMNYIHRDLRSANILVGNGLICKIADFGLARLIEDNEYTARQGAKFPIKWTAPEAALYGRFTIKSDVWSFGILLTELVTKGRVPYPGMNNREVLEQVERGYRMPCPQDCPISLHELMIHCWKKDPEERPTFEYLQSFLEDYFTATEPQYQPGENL

[16] = biological target: T2, Epidermal growth factor receptor; assay: Inhibition of human EGFR using poly[Glu:Tyr] (4:1) as substrate in presence of [gamma33P]ATP by radiometric HotSpot assay
[17] = biological target: Mast/stem cell growth factor receptor Kit (Homo sapiens) (UniProt P10721); assay: Inhibition of human recombinant His-tagged c-Kit cytoplasmic domain (544 to 976 residues) expressed in baculovirus expression system at 500 nM using Tyr 06 as substrate incubated for 1 hr in presence of ATP at its Km concentration by Z'-LYTE assay relative to control
A549 = assay: Antiproliferative activity against human A549 cells assessed as inhibition of cell growth incubated for 72 hrs by Cell Titer Glo luminescent cell viability assay; assay type: functional, cell-based; details: A549, 72 h
CAL-27 = assay: Antiproliferative activity against human CAL27 cells; assay type: functional, cell-based
AU565 = assay: Antiproliferative activity against human AU565 cells incubated for 72 hrs by ATPlite luminescence assay; assay type: functional, cell-based; details: AU565, 72 h
[18] = biological target: T2, Epidermal growth factor receptor; details: dose 100.0 nM, time 1.0 hrs

Question: Which inhibition [1] does the source give for `OCC[C@@H](Nc1ncnc2[nH]c(-c3ccccc3)cc12)c1ccccc1` here?
Answer: 5%

Question: What about the inhibition [2] of the same compound?
Answer: -10%

Question: And the inhibition [3]?
Answer: 7%

Question: And the inhibition [4]?
Answer: 100%

Question: And the inhibition [5]?
Answer: 49%

Question: What about the inhibition [6] of the same compound?
Answer: -5%

Question: What about the inhibition [7] of the same compound?
Answer: 7%

Question: And the inhibition [8]?
Answer: 16%

Question: What about the inhibition [9] of the same compound?
Answer: 15%

Question: What about the inhibition [10] of the same compound?
Answer: -1%

Question: What about the IC50 (BaF3) of the same compound?
Answer: 75 nM

Question: And the inhibition [11]?
Answer: 67%

Question: What about the inhibition [12] of the same compound?
Answer: 5%

Question: What about the inhibition [13] of the same compound?
Answer: 19%

Question: What about the inhibition [14] of the same compound?
Answer: -9%

Question: What about the inhibition [15] of the same compound?
Answer: 26%

Question: And the IC50 [16]?
Answer: 0.5 nM

Question: How did the inhibition [1] turn out when `CCOc1ccccc1-c1cc2c(N[C@H](CO)c3ccccc3)ncnc2[nH]1` was run?
Answer: 10%

Question: What about the inhibition [3] of the same compound?
Answer: 2%

Question: And the inhibition [4]?
Answer: 102%

Question: What about the inhibition [5] of the same compound?
Answer: 44%

Question: And the inhibition [6]?
Answer: -3%

Question: What about the inhibition [7] of the same compound?
Answer: 1%

Question: What about the inhibition [8] of the same compound?
Answer: 14%

Question: And the inhibition [9]?
Answer: 62%

Question: And the inhibition [10]?
Answer: 11%

Question: And the IC50 (BaF3)?
Answer: 98 nM

Question: What about the inhibition [11] of the same compound?
Answer: 73%

Question: What about the inhibition [12] of the same compound?
Answer: 1%

Question: What about the inhibition [13] of the same compound?
Answer: 17%

Question: What about the inhibition [14] of the same compound?
Answer: 1%

Question: What about the inhibition [15] of the same compound?
Answer: 34%

Question: And the IC50 [16]?
Answer: 0.2 nM

Question: Which inhibition [17] does the source give for `CN(C)CCNCc1ccc(-c2cc3c(N[C@H](CO)c4ccccc4)ncnc3[nH]2)cc1F` here?
Answer: 1%

Question: What about the inhibition [1] of the same compound?
Answer: 13%

Question: What about the inhibition [3] of the same compound?
Answer: -6%

Question: And the inhibition [4]?
Answer: 104%

Question: And the inhibition [5]?
Answer: 68%

Question: And the inhibition [6]?
Answer: -3%

Question: And the inhibition [7]?
Answer: 17%

Question: And the inhibition [8]?
Answer: 13%

Question: What about the inhibition [9] of the same compound?
Answer: 74%

Question: What about the inhibition [10] of the same compound?
Answer: 5%

Question: What about the IC50 (BaF3) of the same compound?
Answer: 142 nM

Question: What about the inhibition [11] of the same compound?
Answer: 83%

Question: And the inhibition [13]?
Answer: 17%

Question: What about the inhibition [15] of the same compound?
Answer: 55%

Question: What about the IC50 [16] of the same compound?
Answer: 0.1 nM

Question: For `OC[C@@H](Nc1ncnc2[nH]c(-c3ccccc3)cc12)c1ccccc1`, which inhibition [17] is on record?
Answer: 20%

Question: And the inhibition [1]?
Answer: -8%

Question: And the inhibition [2]?
Answer: 1%

Question: And the inhibition [3]?
Answer: -3%

Question: And the inhibition [4]?
Answer: 96%

Question: What about the IC50 (A549) of the same compound?
Answer: > 100000 nM

Question: What about the inhibition [5] of the same compound?
Answer: 60%

Question: And the inhibition [6]?
Answer: 1%

Question: What about the inhibition [7] of the same compound?
Answer: 13%

Question: And the inhibition [8]?
Answer: 47%

Question: And the IC50 (CAL-27)?
Answer: 2700 nM

Question: And the IC50 (AU565)?
Answer: 2500 nM

Question: And the inhibition [9]?
Answer: 51%

Question: And the inhibition [10]?
Answer: 34%

Question: And the inhibition [11]?
Answer: 73%

Question: And the inhibition [12]?
Answer: 1%

Question: And the inhibition [13]?
Answer: 9%

Question: And the inhibition [14]?
Answer: 17%

Question: What about the inhibition [18] of the same compound?
Answer: 99%

Question: What about the inhibition [15] of the same compound?
Answer: 27%

Question: What about the IC50 [16] of the same compound?
Answer: 0.8 nM

Question: How did the inhibition [17] turn out when `C#Cc1cccc(Nc2ncnc3cc(OCCOC)c(OCCOC)cc23)c1` [ERLOTINIB] was run?
Answer: 17%

Question: What about the IC50 (A549) of the same compound?
Answer: > 100000 nM

Question: And the inhibition [6]?
Answer: -9%

Question: And the IC50 (CAL-27)?
Answer: 1300 nM

Question: What about the IC50 (AU565) of the same compound?
Answer: 3300 nM

Question: And the IC50 (BaF3)?
Answer: 87 nM

Question: And the inhibition [12]?
Answer: 7%

Question: With `COc1ccccc1-c1cc2c(N[C@H](CO)c3ccccc3)ncnc2[nH]1` as the compound, how does the inhibition [17] read?
Answer: 17%

Question: What about the inhibition [1] of the same compound?
Answer: -4%

Question: What about the inhibition [2] of the same compound?
Answer: 0%

Question: What about the inhibition [3] of the same compound?
Answer: -2%

Question: And the inhibition [4]?
Answer: 100%

Question: And the inhibition [5]?
Answer: 64%

Question: What about the inhibition [7] of the same compound?
Answer: 5%

Question: What about the inhibition [8] of the same compound?
Answer: 52%

Question: What about the inhibition [9] of the same compound?
Answer: 79%

Question: And the inhibition [10]?
Answer: 11%

Question: What about the IC50 (BaF3) of the same compound?
Answer: 134 nM

Question: And the inhibition [11]?
Answer: 74%

Question: And the inhibition [12]?
Answer: 1%

Question: And the inhibition [13]?
Answer: 6%

Question: What about the inhibition [14] of the same compound?
Answer: 15%

Question: And the inhibition [18]?
Answer: 100%

Question: What about the inhibition [15] of the same compound?
Answer: 27%

Question: What about the IC50 [16] of the same compound?
Answer: 0.4 nM
